# Several values for one entry are separate records, joined by “and”; a condition that tells them apart may be missing. Identical values can stand only once. Activity calls are given as the source filed them.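 The calls were made as follows: active = fitted half-maximal concentration for changing background-corrected GFP signal at or below a set limit; inactive = the rest.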
# Assay: TOR pathway reporter MEP2-GFP, concentration series – S. cerevisiae, flow cytometry GFP, MLPCN hits, dose response (AID 2742);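 also: GFP tag reports level of MEP2 protein as a downstream target of TOR signalling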
# Settings: S. cerevisiae MEP2-GFP strain, flow cytometry fluorescence, 3 h; at 33 µM (top of the series)
row,SMILES,"GFP fluorescence (kMESF), higher = increase"
1,COc1cc(NC(=O)c2cccc(C)c2)ccc1NC(=O)c1cc2ccccc2o1,2.2 kMESF (inactive)
2,C#CCOCCOCCOCCNc1nc(N2CCN(C(=O)CCCCCCCCCCNC(=O)[C@@H](CCC(=O)O)n3cc(CCCCCN)nn3)CC2)nc(N2CCN(C(=O)CCCCCCCCCCNC(=O)[C@H](CCCCN)n3cc(C[C@@H](C)CC)nn3)CC2)n1,3.84 kMESF (inactive)
3,CN(C)c1ccc(N=Cc2nc(-c3ccccc3)oc2OC(=O)c2cccc(Cl)c2)cc1,3.27 kMESF (inactive)
4,Cc1cc(C(=O)COC(=O)c2ccc[nH]c2=O)c(C)n1-c1ccccc1F,1.88 kMESF (inactive)
5,COc1ccc(C(c2c(C)[nH]n(C(N)=S)c2=O)C(C#N)C#N)cc1 (configuration not stated),4.93 kMESF (inactive)
6,Nc1ccccc1SC(C[N+](=O)[O-])c1ccccc1 (configuration not stated),3.67 kMESF (inactive)
7,Cc1[nH]n(-c2ccccc2)c(=O)c1C(c1ccccc1[N+](=O)[O-])C(C#N)C#N (configuration not stated),4.8 kMESF (inactive)
8,Cc1cccc(N2C(=O)C(Cl)=C(Nc3c(C)n(C)n(-c4ccccc4)c3=O)C2=O)c1C,3.31 kMESF (inactive)
9,O=C(Nc1nnc(-c2ccc(F)cc2)o1)c1cccc([N+](=O)[O-])c1,2.99 kMESF (inactive)
10,O=C(NC(=S)NNC(=O)c1cnccn1)c1ccc(F)cc1,4.26 kMESF (inactive)
11,COc1cc(/C=C/c2ccc3c(Br)cc(Br)c(O)c3n2)ccc1O,9.24 kMESF (inactive)
12,Cc1ccc(S(=O)(=O)c2ncccc2[N+](=O)[O-])cc1,3.64 kMESF (inactive)
13,O=C(O)c1ccccc1SC1CC(=O)N(c2ccc3c(c2)OCO3)C1=O (configuration not stated),3.4 kMESF (inactive)
14,COc1ccc(/C=C/C(=O)C2C(=O)C=C(C)OC2=O)cc1O (configuration not stated),5.45 kMESF (inactive)
15,Cc1ccc(C(=O)/C=C/C(=O)c2ccc(C)cc2)cc1,3.81 kMESF (inactive)
16,O=C1Nc2ccc(Br)cc2/C1=C/C(=O)c1ccc2c(c1)OCO2,4.66 kMESF (inactive)
17,COc1cc(NC(=O)c2ccc(C)cc2)ccc1NC(=O)c1cc2ccccc2o1,2.3 kMESF (inactive)
18,Oc1ccc(Br)cc1/C=N/Nc1ccccn1,3.94 kMESF (inactive)
19,CC(Oc1ccc(Br)cc1)C(=O)Nc1nc(-c2ccccn2)cs1 (configuration not stated),4.68 kMESF (inactive)
20,Cc1cc(C)c2c(c1)/C(=C/C(=O)c1ccc(Br)s1)C(=O)N2,3.51 kMESF (inactive)
21,Cc1ccc2c(c1)c(/C=C/c1cc[n+](C)cc1)c(C)n2C,9.93 kMESF (inactive)

row,SMILES,"GFP fluorescence (kMESF), higher = increase"
1,O=C(/C=C/c1ccc(F)cc1)NC(=S)NNC(=O)c1cnccn1,4.9 kMESF (inactive)
2,COc1cc(/C=C2/C(=O)ON=C2c2ccccc2)ccc1O,3.68 kMESF (inactive)
3,COc1ccc(N2C(=O)C(Cl)=C(Oc3cccc(OC)c3)C2=O)cc1,4.18 kMESF (inactive)
4,COc1ccc(C=C2C(=O)c3ccccc3C2=O)cc1O,2.67 kMESF (inactive)
5,CC(c1ccccc1)N1C(=O)/C(=C/c2ccncc2)SC1=S (configuration not stated),2.87 kMESF (inactive)
6,COc1ccc(C2=CC(=O)N(Nc3ccccc3)C2=O)cc1,6.84 kMESF (inactive)
7,COc1cc(NC(=O)c2ccccc2[N+](=O)[O-])ccc1NC(=O)c1cc2ccccc2o1,2.3 kMESF (inactive)
8,O=S(=O)(/N=C(/Sc1ccccc1)c1ccccc1)c1ccccc1,4.43 kMESF (inactive)
9,CCc1cc(C(=O)Nc2nc(-c3ccccn3)cs2)sc1C,6.18 kMESF (inactive)
10,O=C(COc1ccccc1)N1CCN(c2ncnc3c2cnn3-c2ccccc2)CC1,1.97 kMESF (inactive)
11,CCOC(=O)c1cc(-c2ccc(/C=C3/C(=O)NC(=O)C(C#N)=C3C)o2)ccc1Cl,6.22 kMESF (inactive)
12,Oc1ccc2ccccc2c1/C=N/Nc1nnc(-c2ncc[nH]2)c2ccccc12,-21.2 kMESF (inactive)
13,Cc1ccc(-c2nc(N)c3c(-c4ccc(C)cc4)nn(C(C)(C)C)c3n2)cc1,1.65 kMESF (inactive)
14,CCOC(=O)C(C(=O)OCC)C(C(=O)OCC)N1CCOCC1 (configuration not stated),4.83 kMESF (inactive)
15,CC(C)[C@]1(c2ccccc2)ON(c2ccccc2C(F)(F)F)C1=O,2.87 kMESF (inactive)
16,CC(C)(C)c1nnc(N/N=C/c2cc(Br)ccc2O)n(N)c1=O,2.57 kMESF (inactive)
17,Cc1cccc(/C=C/C(=O)c2ccc([N+](=O)[O-])o2)c1,5.78 kMESF (inactive)
18,O=[N+]([O-])c1cc(Cl)cc(/C=N\Nc2ccccn2)c1O,4.91 kMESF (inactive)
19,O=C1C2C3C=CC(CO)(O3)C2C(=O)N1c1ccccc1-c1ccccc1 (configuration not stated),5.17 kMESF (inactive)
20,COc1ccc2c(c1)c1nnc(SC)nc1n2C,1.9 kMESF (inactive)
21,O=[N+]([O-])c1ccc(O)c2ncccc12,3.94 kMESF (inactive) and 3.38 kMESF (inactive)

row,SMILES,"GFP fluorescence (kMESF), higher = increase"
1,CN1C(=O)/C(=N\OC(=O)c2cccc3ccccc23)c2ccccc21,3.68 kMESF (inactive)
2,CN(O)/C=c1/ccc2c(n1)C(=O)C=CC=2,3.88 kMESF (inactive)
3,COc1cccc(/C=N/Nc2ncc(C(F)(F)F)cc2Cl)c1O,3.26 kMESF (inactive)
4,O=C1ON=C(c2ccccc2)/C1=C/c1ccc(-c2ccccc2[N+](=O)[O-])o1,5.5 kMESF (inactive)
5,O=C(c1ccccc1)c1ccccc1N1C(=O)C=CC1=O,4.22 kMESF (inactive)
6,COc1ccc(/C=C/C(=O)c2cc(Br)ccc(=O)c2O)cc1,-51.6 kMESF (inactive)
7,O=c1c2cnn(-c3ccccc3)c2ncn1Cc1ccco1,1.97 kMESF (inactive)
8,CCSc1nnc(NC(=O)c2ccccn2)s1,4.39 kMESF (inactive)
9,C#CCOCCOCCOCCNc1nc(N2CCN(C(=O)CCCCCCCCCCNC(=O)[C@H](CCCCN)n3cc(CCCC(=O)O)nn3)CC2)nc(N2CCN(C(=O)CCCCCCCCCCNC(=O)[C@H](CCCN=C(N)N)n3cc(C[C@@H](C)CC)nn3)CC2)n1,3.78 kMESF (inactive)
10,O=C(c1ccccn1)c1conc1C(=O)c1ccc(Br)cc1,2.83 kMESF (inactive)
11,Cc1ccc(/C=C/C(=O)c2ccc([N+](=O)[O-])o2)cc1,3.92 kMESF (inactive)
12,CC(C)(C)C1C/C(=C/c2ccccn2)C(=O)/C(=C/c2ccccn2)C1 (configuration not stated),2.67 kMESF (inactive)
13,On1ccccc1=S,3.58 kMESF (inactive)
14,O=C(Nc1nnc(-c2ccc(F)cc2)o1)c1cc(Cl)sc1Cl,3.38 kMESF (inactive)
15,COc1ccc(NC(=O)/C(Cl)=C(/Cl)S(=O)Cc2ccccc2)cn1 (configuration not stated),4.75 kMESF (inactive)
16,O=C(OCC(=O)N1CCN(C(=O)c2ccco2)CC1)c1cc(-c2ccccc2)nc2ccccc12,3.96 kMESF (inactive) and 2.66 kMESF (inactive)
17,CN(C)C(=O)Oc1ccnc2cc(Cl)ccc12,3.58 kMESF (inactive)
18,COc1cccc(/C=C2\SC(=S)N(CCCC(=O)Nc3ccc(C(=O)O)cc3)C2=O)c1,1.55 kMESF (inactive)
19,Cc1ccc(/C=C2/SC(=S)N(C3CCCCC3)C2=O)o1,4.94 kMESF (inactive)
20,CCCCc1ccc(NC(=O)CC(C)=O)cc1,2.02 kMESF (inactive)
21,O=C1ON=C(c2ccccc2)/C1=C/c1ccco1,4.24 kMESF (inactive)

row,SMILES,"GFP fluorescence (kMESF), higher = increase"
1,O=C(C#Cc1ccccc1)c1cccc([N+](=O)[O-])c1,4.67 kMESF (inactive)
2,O=C(Oc1c(Cl)cc(Cl)c2cccnc12)c1cccs1,3.47 kMESF (inactive)
3,CC[C@]1(c2ccccc2OC)ON(c2ccccc2C(F)(F)F)C1=O,4.31 kMESF (inactive)
4,Cc1c(NC2=C(Cl)C(=O)N(c3ccccc3Cl)C2=O)c(=O)n(-c2ccccc2)n1C,1.97 kMESF (inactive)
5,O=C1ON=C(c2ccccc2)/C1=C\c1ccco1,4.59 kMESF (inactive)
6,Cc1ccc(NC(=O)c2nc(S(=O)(=O)Cc3ccccc3)ncc2Cl)cc1,3.33 kMESF (inactive)
7,O=C(/C=C/c1ccccn1)c1ccc(Br)cc1O,2.38 kMESF (inactive)
8,Cc1ccc(-c2nn(C(C)(C)C)c3ncnc(N)c23)cc1,6.01 kMESF (inactive)
9,COc1ccccc1[C@]1(C)ON(c2ccccc2C(F)(F)F)C1=O,5.08 kMESF (inactive)
10,O=C(OCn1ncc(Br)c(Br)c1=O)c1c(F)cccc1F,4.49 kMESF (inactive)
11,COc1cc(C=C2C(=O)c3ccccc3C2=O)cc(OC)c1OC,2.43 kMESF (inactive)
12,CCOC(=O)CSC1=NC(=O)/C(=C/c2ccc(Br)cc2)S1,4.7 kMESF (inactive)
13,O=[N+]([O-])c1ccc(S(=O)(=O)c2ccccc2)nc1,5.25 kMESF (inactive)
14,CC1=C/C(=N\OS(=O)(=O)c2ccccc2)C(C)=CC1=O,-2.25 kMESF (inactive)
15,Cc1ccc(S(=O)(=O)N2CC(C(=O)O)=CC[C@H]2c2ccc(Cl)cc2)cc1,3.69 kMESF (inactive)
16,Cc1ccc(C(c2cc(Cl)c3cccnc3c2O)N2CCN(C)CC2)cc1 (configuration not stated),3.22 kMESF (inactive)
17,Cc1ccc(C2=NOC(=O)/C2=C\c2ccc(C)o2)cc1,2.14 kMESF (inactive)
18,N=C1S/C(=C\c2ccco2)C(=O)N1c1nccs1,4.56 kMESF (inactive)
19,C/C(=N/NC(=O)c1ccc(C(C)(C)C)cc1)c1ccccn1,5.35 kMESF (inactive)

# — PubChem BioAssay AID2742 (NMMLSC, 2010)
